Reference: PubChem BioAssay (NCI)
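Test compounds were applied to cells in 96-well plates for 48 hours at 5 doses. GI50 is the concentration that inhibits growth by half. TGI: total growth inhibition.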

How the values were obtained:
Assay in all cases: NCI tumour cell line growth inhibition, 48 h
[1] = test system: EKVX NSCLC
[2] = test system: SN12C renal
[3] = test system: SF-295 CNS
[4] = test system: IGROV1 ovarian
[5] = test system: T-47D breast
[6] = test system: NCI/ADR-RES ovarian
[7] = test system: UACC-62 melanoma
[8] = test system: SNB-75 CNS
[9] = test system: SW-620 colon
[10] = test system: A549 NSCLC

| SMILES | GI50 [1] [µM] | TGI [1] [µM] | GI50 [2] [µM] | TGI [2] [µM] | GI50 [3] [µM] | TGI [3] [µM] | GI50 [4] [µM] | TGI [4] [µM] | GI50 [5] [µM] | TGI [5] [µM] | GI50 [6] [µM] | TGI [6] [µM] | GI50 [7] [µM] | TGI [7] [µM] | GI50 [8] [µM] | TGI [8] [µM] | GI50 [9] [µM] | TGI [9] [µM] | GI50 [10] [µM] | TGI [10] [µM] |
| --- | --- | --- | --- | --- | --- | --- | --- | --- | --- | --- | --- | --- | --- | --- | --- | --- | --- | --- | --- | --- |
| Cc1cc(I)cc(CN(C)CCCN2CCC(C)CC2)c1O | 14.2 | 31 | 24 | 93.4 | 14.5 | 29.3 | 13.6 | 29.1 | 15.8 | 40.7 | 14.3 | 31 | 14.2 | 30.4 | 11 | 23 | 13.6 | 26.6 | 15.4 | 29.6 |
| C[C@@H]1CC[C@@H]2[C@@H]1[C@H](OC(=O)/C=C/C1CCCCC1)[C@]1(C3CCCCC3)C[C@@H](OC(=O)CO)[C@@]2(C)O1 | 12.1 | 24.4 | 0.0321 | 15.1 | 14.3 | 26.7 | 14.4 | 29.8 | 11.1 | 24.1 | 0.579 | 18.4 | 13.5 | 26.8 | 1.32 | 16.5 | 15.5 | 29.8 | 14.2 | 27.1 |
| OC(c1cc(C(F)(F)F)nc2c(Cl)cc(Cl)cc12)C1CCCCN1 (stereo not given) | – | > 100 | – | > 39.6 | – | 25.4 | – | 18.2 | – | 19 | – | 30.2 | – | > 47.7 | – | 24.4 | – | 19.2 | – | > 52.2 |
| NC1CC(=O)c2c(-c3cccs3)sc(-c3cccs3)c21 (stereo not given) | 51.3 | > 100 | 24.3 | 69.8 | 85.4 | > 100 | 27.3 | > 100 | 10.7 | 36.5 | 29.5 | > 100 | 55.9 | > 100 | 22.6 | 89.8 | 9.11 | 58 | 53.2 | > 100 |
| CC1(C)OCC2OC(n3cnc4c(N)nc(Cl)nc43)C(OS(C)(=O)=O)C2O1 (stereo not given) | – | > 100 | – | > 100 | – | > 100 | – | > 100 | – | > 100 | – | > 100 | – | > 100 | – | > 100 | – | > 100 | – | > 100 |
| COc1cc2[nH]c3c(c2cc1OC)CCN[C@@]31CC[C@@]2(CC3c4c(cc(OC)c(O)c42)CCN3C)C[C@@H]1OC (stereo not given in full) | – | > 46.4 | – | > 100 | – | 47.3 | – | > 100 | – | 51.8 | – | > 85.1 | – | 45.3 | – | 54 | – | > 92.2 | – | > 100 |
| Clc1cnc(Nc2ccc(OCCN3CCCC3)cc2)nc1NCc1ccco1 | 2.1 | 6.47 | 2.42 | 10.6 | 2.18 | 6.63 | 2.5 | 12.8 | 3.14 | 10.6 | 3.15 | 9.53 | 1.83 | 3.73 | 1.91 | 4.27 | 2.26 | 13 | 2.56 | 16.3 |
| C=CCc1c(O)c(C(=O)/C=C/c2ccc(Cl)cc2)c(OC)c2ccoc12 | 7.23 | 21.5 | 4.96 | 16.9 | 2.77 | 9.56 | 3.46 | 14.9 | 3.29 | 19 | 2.23 | 5.86 | 2.88 | 10.1 | 2.01 | 9.11 | 2.56 | 6.86 | 4.7 | 18.2 |
| CN1C(=O)N(C)C2C1NC(=S)N2/N=C/C=C/c1ccccc1[N+](=O)[O-] (stereo not given) | 3.86 | > 100 | 6.82 | > 100 | 0.625 | > 100 | 2.48 | > 100 | > 100 | > 100 | 2.16 | > 100 | 0.419 | > 100 | 0.319 | > 100 | 0.596 | > 100 | 2.15 | > 100 |
| NS(=O)(=O)c1ccc(-n2nc3c(c2-c2cccs2)Cc2ccccc2-3)cc1 | 11.9 | 29.4 | 12.2 | 25 | 13.8 | 31.4 | 2.49 | 15.5 | 12.8 | 41.1 | 12.4 | 26.1 | 11.5 | 23.7 | 25.5 | 83.1 | 10.2 | 23.4 | 20.7 | 51.1 |
| CCN1CCN(C(=O)[C@]23CC[C@@H](C)[C@H](C)[C@@H]2C2=CC[C@@H]4[C@@]5(C)CCC(=O)C(C)(C)[C@@H]5CC[C@@]4(C)[C@]2(C)CC3)CC1 | 0.916 | 2.42 | 0.776 | 1.48 | 0.82 | 1.59 | 1.4 | 4.85 | 1.33 | 3.89 | 1.08 | 3.24 | 0.835 | 1.61 | 1.03 | 3.82 | 0.902 | 1.76 | 1.47 | 5.98 |
| COc1cc(OC)c(/C=C/C(=O)c2c(OC)cc(OC)cc2OC)c(OC)c1 | 3.61 | > 100 | 1.81 | > 74.4 | 0.75 | > 21 | 0.577 | 25.2 | 2.01 | > 100 | 0.469 | 10 | 0.414 | 4.14 | 1.83 | > 26.2 | 0.417 | 2.91 | 1.72 | > 76.3 |
| CC1Cc2c(Cl)ncnc2N(C)c2ccccc21 (stereo not given) | 3.13 | > 100 | 3.4 | 15.5 | 3.28 | 37.4 | 3.78 | > 100 | 4.29 | 37.4 | 2.69 | 12.4 | 3.32 | 12.8 | 0.352 | 33.5 | 3.08 | 11.2 | 4.85 | > 100 |
